Assay results from patent US20100093642A1, “NOVEL POLYPEPTIDES” (priority 2006, published 2010).
Residues, ends and D or L forms follow the SMILES beside them. No end group written: not given here.

What was measured:
Type in all cases: cell-based
Settings in all cases: 24 h
[1] = test system: human breast malignant carcinoma cell line (MT-1)
Description: The cytotoxic effects of the peptides on different human tumour cells were measured using the MTT colorimetric assay (Mosmann, 1983). MIT (3-(4-5-dimethylthiazol-2-yl)-2,5-diphenyl tetrazolium bromide) is a soluble tetrazolium salt yielding a yellow solution when prepared in media or salt solutions lacking phenol red. Dissolved MIT is converted to an insoluble purple formazan by cleavage of the tetrazolium ring by dehydrogenase enzymes. This water insoluble formazan can be solubilized using isopropanol or other solvents and the dissolved material is measured spectrophotometrically. The absorbance was measured as a function of concentration of converted dye. […]
The tumour cell lines FemX, HT-29, MT-1 were maintained in RPMI-1640 medium supplemented with 10% heat inactivated FBS and 1% L-glutamine in a humidified atmosphere of 5% CO2 at 37° C. […] Cells to be used in the assay were grown to a minimum of 75% confluency, trypsinated and split to single cell suspension, counted and centrifuged at 1500 rpm for 10 min. […]
The cytotoxicity was measured using the MTT method (Mosmann, 1983), with minor modifications. […] The plate was placed on a shaker for 1 hour at room temperature and read spectrophotometrically at 590 nm in a microtiter plate reader (DTX880 Multimode Detector, Beckman Coulter). […]

[2] = test system: human colorectal adenocarcinoma cell line HT-29
[3] = test system: human embryonic lung fibroblast cell line MRC-5

## CC[C@H](C)[C@H](NC(=O)CNC(=O)[C@H](CO)NC(=O)[C@H](CCCCN)NC(=O)[C@@H](NC(=O)[C@H](C)NC(=O)[C@H](Cc1c[nH]cn1)NC(=O)[C@H](CO)NC(=O)[C@@H](NC(=O)[C@H](CCCCN)NC(=O)[C@H](Cc1c[nH]cn1)NC(=O)[C@H](Cc1ccccc1)NC(=O)[C@@H](NC(=O)[C@H](CCCCN)NC(=O)[C@H](CCCCN)NC(=O)[C@H](Cc1ccccc1)NC(=O)C(Cc1c[nH]c2ccc(Br)cc12)NC(=O)CN)[C@@H](C)O)C(C)C)C(C)C)C(=O)N[C@@H](Cc1c[nH]cn1)C(=O)N[C@@H](C)C(=O)NCC(=O)N[C@@H](CCC(N)=O)C(=O)N[C@@H](CCCNC(=N)N)C(=O)NCC(=O)N[C@@H](CS)C(=O)N[C@@H](CO)C(=O)N[C@@H](C)C(=O)N[C@@H](CC(C)C)C(=O)NCC(=O)N[C@@H](Cc1ccccc1)C(=O)O (stereo partly drawn) [P17 HC-Br] (HELM PEPTIDE1{G.[O=C(C(Cc1c[nH]c2ccc(Br)cc12)N[*:1])[*:2]].F.K.K.T.F.H.K.V.S.H.A.V.K.S.G.I.H.A.G.Q.R.G.C.S.A.L.G.F}$$$$V2.0)
[1]
  IC50: 20 µM

## GWFKKTFHKVSHAVKSGIHAGQRGCSALGF [P17 HC]
[2]
  IC50: 52 µM
[3]
  IC50: 53 µM
